Holding throughout (assay type): cell-based
The target of one test is TRPV4 (Homo sapiens, UniProt Q9HBA0). Briefly: UVB-evoked Ca++ transient in TRPV4-transfected HEK293T cells. Further details: expressed in transfected cells. The conditions noted are these: preexposure to 20 μM GSK205. An excerpt:
(FIG. 2B) Focusing properties of the ball lens. […] (FIG. 2E) TRPV3 activation experiment. […] (FIG. 2F) TRPV4 selective activator GSK101-related findings.
To assess whether TRPV4 is sufficient for the UVB-evoked Ca++ influx, we introduced high levels of TRPV4 into HEK293 epithelial cells. TRPV4 expression endowed these cells with the ability to generate robust Ca++ signaling in response to UVB (FIG. 2G). Moreover, if they were pre-exposed to GSK205, the response was blocked. Thus, heterologous TRPV4 expression is sufficient for UVB radiation to cause a cellular Ca++ transient.

The subject of test [1] is primary mouse keratinocytes (1° MK). Briefly: UVB-evoked Ca++ signaling in primary mouse keratinocytes (fluo-4). On the procedure: Ca++ imaging of 1° MK was conducted following routine procedures. For UVB stimulation, a customized device was built. The system comprised a printed circuit board for electrical interconnects and mechanical support and an ultraviolet light-emitting diode (UV LED).
The operating wavelength was 295 nm (FIG. 2A), with a full-width half-max of 12 nm. The optical power was 500 mW. The focal point was aimed at the plane of the upper surface of the quartz coverslip, which was used to minimize UV absorption along the optical path towards the cells (FIG. 2A-C). The optical intensity at the focal point was estimated to be 150 mW/mm^2.
Ca++ imaging of mouse 1° MK in response to chemical activation of TRPV4 was conducted after loading with 2 μM fura2-AM, following a ratiometric Ca2+ imaging protocol with 340/380 nm […] for dual excitation. Ratios of emissions were acquired at 0.5 Hz. ΔR/R0 was determined as the fraction of the increase of a given ratio over baseline ratio, divided by baseline ratio. For stimulation of cells with UVB, where fura-2 was not suitable because of the proximity of stimulation with 340/380 nm and 295 nm, 2 μM fluo4-AM was used instead. Ca++ imaging was carried out at 488 nm excitation, acquisition of emissions at 0.5 Hz, expressed as ΔF/F0. In the custom-built UV optical system, UV LEDs were capped with a ball lens, a transparent optical window in the shape of a hemispherical lens (FIG. 2B). The LED output optical beam focused at 15-20 mm from the lens, with a spot diameter of approximately 1.5-2.0 mm (FIG. 2C). […] The thermal equilibration stage was set for physiological temperature.

The test system is the same in test [2]. Briefly: ET1 immunocytochemistry in UVB-exposed primary mouse keratinocytes. To be noted: 295 nm UVB-LED. On the procedure: 1° MK were exposed to UVB using the UV optical system (295 nm LED). 24 hours later the cells were fixed and fluorescently immunolabeled for ET1. Digital images were captured and subjected to morphometry.
Mouse keratinocytes were cultured on collagen coated quartz coverslips and then stimulated from the bottom using the previously mentioned UV optical system using the 295 nm LED. 24 hours later the cells were fixed in 4% formaldehyde in PBS for 20 minutes, permeabilized with 0.1% Triton X-100 in PBS for 10 minutes, washed, then blocked in 10% normal goat serum in PBS for 45 minutes. Coverslips were incubated overnight with primary antibody mouse anti-ET1 (1:200; Abcam), washed three times in PBS and incubated with secondary antibody for 2 hours at 25° C. Coverslips were washed three times in PBS, once with double-distilled H2O. Digital images were captured using a 40× immersion lens on the BX61 Olympus upright microscope. Morphometric analysis was conducted using ImageJ freeware with tailored regions-of-interest.

For test [3] the test system is unchanged. Description: ET1 secretion by non-stimulated primary mouse keratinocytes (ELISA). As to the method:
FIGS. 8A-8D: Central role for KC TRPV4 in UVB-evoked Ca^++ signaling and nocifensive behavior—ET1-related supplementary findings. (FIG. 8A) Augmentation of GSK101-evoked Ca^++ signaling by ET1. Shown are averaged Ca^++ measurements (fura-2) in response to 5 nM GSK101. Note the increase in signal in response to co-exposure to ET1. (FIG. 8B) ET1 secretion by non-stimulated 1° MK depends on TRPV4 and PLC. Shown are relative ET1 concentrations (determined by ELISA, pg/mL; vehicle-treated and WT control normalized to 100) in supernatant of non-stimulated 1° MK. Note the clear dependence on TRPV4, as indicated by a 50% reduction in Trpv4^−/− 1° MK. […] There is also down-regulation of ET1 secretion by a specific inhibitor of PLC (U73122), and by an ET-convertase inhibitor, CGS35066, which served as a control compound. In addition, PLC-inhibitor robustly affects ET1 secretion in WT and Trpv4^−/− 1° MK. (FIG. 8C) ET1 expression by UVB-exposed 1° MK depends on TRPV4 and PLC—immunocytochemistry. Shown is specific ET1 immunolabeling in 1° MK, exposed to UVB using the UVB-LEDs, as for Ca^++ imaging. Use of the UVB-LED device precluded application of a ET1 ELISA, only irradiated cells could be examined. […] (FIG. 8D) ET1 expression by UVB-exposed 1° MK depends on TRPV4 and PLC—quantification of immunocytochemistry.
(In an ELISA, binding on a coated surface is turned into a signal by an enzyme label.)

Chain of TRPV4 (Q9HBA0 whole entry, species assumed): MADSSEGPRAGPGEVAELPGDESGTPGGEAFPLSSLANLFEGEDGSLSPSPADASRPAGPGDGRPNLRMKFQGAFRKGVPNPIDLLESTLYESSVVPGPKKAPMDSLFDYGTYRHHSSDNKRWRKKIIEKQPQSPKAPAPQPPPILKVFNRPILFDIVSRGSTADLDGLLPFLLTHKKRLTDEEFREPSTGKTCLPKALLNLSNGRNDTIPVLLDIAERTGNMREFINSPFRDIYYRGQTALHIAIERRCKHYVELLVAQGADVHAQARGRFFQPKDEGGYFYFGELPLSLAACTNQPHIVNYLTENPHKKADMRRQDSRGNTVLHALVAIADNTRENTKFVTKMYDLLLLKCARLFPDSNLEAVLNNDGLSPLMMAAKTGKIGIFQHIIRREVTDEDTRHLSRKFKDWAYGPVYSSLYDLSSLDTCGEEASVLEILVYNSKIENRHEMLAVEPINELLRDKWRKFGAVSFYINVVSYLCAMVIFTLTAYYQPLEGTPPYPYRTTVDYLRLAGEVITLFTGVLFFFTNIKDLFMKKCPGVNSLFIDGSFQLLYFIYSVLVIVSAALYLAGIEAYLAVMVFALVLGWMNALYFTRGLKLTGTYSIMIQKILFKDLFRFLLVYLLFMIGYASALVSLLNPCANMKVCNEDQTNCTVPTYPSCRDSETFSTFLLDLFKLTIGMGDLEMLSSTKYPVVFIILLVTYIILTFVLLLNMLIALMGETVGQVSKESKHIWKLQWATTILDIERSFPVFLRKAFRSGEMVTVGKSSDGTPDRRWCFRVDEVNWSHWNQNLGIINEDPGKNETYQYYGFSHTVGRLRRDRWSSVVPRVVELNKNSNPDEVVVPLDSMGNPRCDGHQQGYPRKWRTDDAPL

For `CN(CCc1ccc(Nc2nc(-c3cccnc3)cs2)cc1)Cc1ccccc1` [GSK205], the “UVB-evoked Ca++-signal in TRPV4-transfected HEK293T cells” value at TRPV4 is on record as “virtually eliminates”. For the same compound, in test [1] (GSK205 20 μM), the “UVB-evoked Ca++ signal” value is recorded as “strongly down-regulated”. The “ET1-augmented UVB-induced Ca++ transients” value in test [1] (co-exposure to ET1) is given as “greatly diminished”. Also, the “ET1 immunoreactivity in UVB-exposed 1° MK” value in test [2] is reported as “significant down-regulation”. For the same compound, the “ET1 secretion, supernatant of non-stimulated 1° MK” value in test [3] is “significant down-regulation”.

Source of the values: US11564911B2, “Small molecule dual-inhibitors of TRPV4 and TRPA1 for sanitizing and anesthetizing” (Duke University, priority 2016, dated 2023).
